Data set [1] is described as follows: Solubility of Compound 1A in lipids, oils and acrylate monomers. The format is physicochemical. From the text:
In General, the Constituents of a PACA Particle Contains: • Aqueous phase: Brij L35, Kolliphor HS15 and HCl to adjust pH • Oil phase: acrylate monomer (ethyl hexylcyanoacrylate, ethyl butylcyanoacrylate, 1-heptyl cyanoacrylate, and 2-phenylethyl cyanoacrylate/butyl cyanoacrylate), Miglyol, vanillin, Compound 1A.
Lipid-based particles were investigated as a vehicle for Compound 1A.

The next data set concerns Paecilomyces strains. Nature of the data set: MIC testing (CLSI M38-A2). The class given is cell-based, Paecilomyces spp. To be noted: Paecilomyces strains (5); in µg/mL.

Consider `C[C@@H]1[C@H](O)[C@@H](C)/C=C/C=C/C=C/C=C/C=C/C=C/C=C/[C@H](O[C@@H]2O[C@H](C)[C@@H](O)[C@H](N)[C@@H]2O)C[C@@H]2O[C@](O)(C[C@@H](O)[C@H](O)CC[C@@H](O)C[C@@H](O)C[C@@H](O)CC(=O)O[C@H]1C)C[C@H](O)[C@H]2C` [Compound 1A], for which the solubility entry in data set [1] (in 1-heptyl cyanoacrylate and 2-phenylethyl cyanoacrylate/butyl cyanoacrylate) is listed as “unable to dissolve”; in data set [1] (in the tested oils and lipids listed), “None of the tested oils or lipids dissolved Compound 1A well”; in data set [1] (in trans-cinnamaldehyde) it was “somewhat soluble”.
Regarding `C[C@@H](c1ncncc1F)[C@](O)(Cn1cncn1)c1ccc(F)cc1F` [Voriconazole, voriconazole], the “MIC Range” value in the data set on Paecilomyces strains was 0.125-2.

These data come from patent US20230138395A1, “PHARMACEUTICAL COMPOSITIONS OF A THERAPEUTIC POLYENE MACROLIDE AND METHODS OF THEIR USE” (priority 2020, published 2023).
